One data set deals with human liver hepatocytes. The data set is described as follows: Intrinsic clearance in human liver hepatocytes. The format is in vitro ADME. To be noted: human cryopreserved hepatocytes, 0.5 μM test compound. Here is the method:
Vials of human cryopreserved hepatocytes, supplied by Life Technologies, were thawed according to manufacturer's instructions and cells re-suspended in Williams Medium E (WME) containing cell maintenance supplement pack (CM4000, Life Technologies). Hepatocytes were incubated in suspension (0.5 million cells/mL) in 48 well non-collagen coated cell culture plates for 10 min at 37° C., 5% CO2. Upon addition of an equal volume of supplemented WME containing 1 μM test compound, an aliquot of incubation solution was removed to acetonitrile containing internal standard (final concentration 0.5 μM test compound and a cell density of 0.25 million cells/mL). Similarly, aliquots were removed at 3, 6, 9, 15, 30, 45, 60, 90 and 120 min. 100 μL of 80:20 water:acetonitrile was added to all samples and the analysis plate was centrifuged for 10 min at RT prior to injection and analysis of samples by UPLC-MS/MS. The response (area ratio of test compound to internal standard) was plotted against time using an exponential decay model from which rate of disappearance was calculated.

Data set [1] concerns CD4+ T-cells stimulated by CD2, CD3 and CD28 antibodies. The data set is described as follows: Cellular activity IL-4: reduction of IL-4 levels in activated CD4+ T-cells. The format is cell-based, human. As to the method:
• 1. CD4^+ T-cells are isolated from cryopreserved human peripheral blood mononuclear cells (PBMCs) using EasySep™ Kit (Cat. No. 17952, Stemcell Technologies). • 2. CD2, CD3 and CD28 antibodies coated beads from T cell Activation/Expansion Kit (Cat. No. 130-091-441, Miltenyi Biotec) are added to the CD4^+ T-cells at a bead-to-cell ratio of 1:2. • 3. CD4^+ T-cells along with the beads are seeded at 2×10^5 cells/well in a round bottom 96-well plate and treated with different compounds and controls in a total volume of 200 μl. • 4. The cells are cultured for 48 hrs at 37° C., 5% CO2. • 5. Supernatant is collected and IL-4 is analysed by ELISA.

For a further data set, the target named is BRD4 BD1 (Homo sapiens (Human), UniProt O60885). The data set is described as follows: Bromodomain binding assay (T7 phage display, qPCR), BRD4 BD1. To be noted: read-out: BRD4 BD1 Kd. Here is the method: (§1) T7 phage strains displaying bromodomains were grown in parallel in 24-well blocks in an E. coli host derived from the BL21 strain. E. coli were grown to log-phase and infected with T7 phage from a frozen stock (multiplicity of infection=0.4) and incubated with shaking at 32° C. until lysis (90-150 min). The lysates were centrifuged (5,000×g) and filtered (0.2 μm) to remove cell debris. Streptavidin-coated magnetic beads were treated with biotinylated small molecule or acetylated peptide ligands for 30 min at RT to generate affinity resins for bromodomain assays. The ligated beads were blocked with excess biotin and washed with blocking buffer (SeaBlock (Pierce), 1% BSA, 0.05% Tween 20, 1 mM DTT) to remove unbound ligand and to reduce non-specific phage binding. Binding reactions were assembled by combining bromodomains, ligated affinity beads, and test compounds in 1× binding buffer (16% SeaBlock, 0.32×PBS, 0.02% BSA, 0.04% Tween 20, 0.004% Sodium azide, 7.9 mM DTT). Test compounds were prepared as 1000× stocks in 100% DMSO and subsequently diluted 1:25 in MEG. The compounds were then diluted directly into the assays such that the final concentrations of DMSO and MEG were 0.1% and 2.4%, respectively. All reactions were performed in polypropylene 384-well plates in a final volume of 0.02 ml. The assay plates were incubated at RT with shaking for 1 hr and the affinity beads were washed with wash buffer (1×PBS, 0.05% Tween 20). The beads were then re-suspended in elution buffer (1×PBS, 0.05% Tween 20, 2 μM non-biotinylated affinity ligand) and incubated at RT with shaking for 30 min. The bromodomain concentration in the eluates was measured by quantitative polymerase chain reaction (qPCR).
(§2) An 11-point 3-fold serial dilution of each test compound was prepared in 100% DMSO at 1000× final test concentration. All compounds were distributed by acoustic transfer (non-contact dispensing) in 100% DMSO. The compounds were then diluted directly into the assays such that the final concentration of DMSO was 0.09%. Most dissociation constants were determined using a compound top concentration=10,000 nM. If the initial dissociation constant determined was <0.169 nM (the lowest concentration tested), the measurement was repeated with a serial dilution starting at a lower top concentration.
(§3) The same bromodomain assay procedure as that outlined above was used. Example compounds were screened at 30 times their Kd, and results for primary screen binding interactions are reported as ‘% Ctrl’, where lower numbers indicate stronger hits in the matrix.
(Real-time PCR tracks product formation cycle by cycle.)

A further data set has as its target BRD4 BD2 (Homo sapiens (Human), UniProt O60885). The data set is described as follows: Bromodomain binding assay (T7 phage display, qPCR), BRD4 BD2. The settings on record: read-out: BRD4 BD2 Kd. Here is the method:
as §1, §2, §3

The mark [2] stands for this setting: Homo sapiens, T-cell, 48 hrs, ELISA, read-out: EC50 reduction of IL-4 levels.
Setting [3] is: Homo sapiens, T-cell, read-out: cellular EC50 values, reduction of IL-4 levels.

For orientation: EC50 means the concentration that produces a half-maximal response. The Kd is the equilibrium constant for the complex coming apart.

SMILES strings stand for the structures. Like-named read-outs stand apart in the source and are kept apart here.

For `Cn1cc(-c2cc(O)ccc2Oc2ccccc2)ccc1=O` [Example 8, 5-(5-hydroxy-2-phenoxyphenyl)-1-methyl pyridin-2(1H)-one], in the data set on human liver hepatocytes, the “Intrinsic clearance, % Liver Blood Flow” value is 95 % Liver Blood Flow. In data set [1] (setting [2]), the EC50 fell in the range of 100 to 1000 nM. Besides, the Kd on BRD4 BD1 is 10 to 100 nM.
For `Cc1cc(F)cc(C)c1Oc1c(-c2cn(C)c(=O)c3[nH]ccc23)ccn(C)c1=O` [Example 40, 4-(3-(4-fluoro-2,6-dimethylphenoxy)-1-methyl-2-oxo-1,2-dihydropyridin-4-yl)-6-methyl-1,6-dihydro-7H-pyrrolo[2,3-c]pyridin-7-one], in the data set with human liver hepatocytes, the “Intrinsic clearance, % Liver Blood Flow” value is listed as below 34 % Liver Blood Flow. In addition, the Kd on BRD4 BD2 was 10 to 100 nM; on BRD4 BD1 it was 100 to 1000 nM. For the same compound, in data set [1] (setting [2]), the EC50 was in the range of 100 to 1000 nM.
In the case of `Cn1cc(-c2scnc2Oc2ccc(O)cc2)c2cc[nH]c2c1=O` [Example 20, 4-(4-(4-hydroxyphenoxy)thiazol-5-yl)-6-methyl-1,6-dihydro-7H-pyrrolo[2,3-c]pyridin-7-one], the figures for the EC50 in data set [1] (setting [2]) and in data set [1] (setting [3]) were 10 to 100 nM and below 100 nM, respectively. Also, at BRD4 BD1, the Kd is 10 to 100 nM.
For `Cn1cc(-c2scnc2Oc2ccccc2)ccc1=O` [Example 18, 1-methyl-5-(4-phenoxythiazol-5-yl)pyridin-2(1H)-one], the “Intrinsic clearance, % Liver Blood Flow” value in the data set with human liver hepatocytes came out at 69 % Liver Blood Flow. The EC50 in data set [1] (setting [2]) was above 1000 nM. Also, the Kd on BRD4 BD1 lay within 100 to 1000 nM.
As to `Cc1cc(F)cc(C)c1Oc1c(-c2cn(C)c(=O)c3[nH]c(C(=O)NC(C)(C)C(F)(F)F)cc23)ccn(C)c1=O` [Example 43], in the data set on human liver hepatocytes, the “Intrinsic clearance, % Liver Blood Flow” value stood at 38 % Liver Blood Flow. In addition, the values for the Kd on BRD4 BD2 and at BRD4 BD1 were 10 to 100 nM and above 1000 nM, respectively. The EC50 in data set [1] (setting [2]) lay in the range of 100 to 1000 nM.
Take `Cn1cc(-c2scnc2OC2CCC2)c2cc[nH]c2c1=O` [Example 45, 4-(4-cyclobutoxythiazol-5-yl)-6-methyl-1,6-dihydro-7H-pyrrolo[2,3-c]pyridin-7-one]: the “Intrinsic clearance, % Liver Blood Flow” value in the data set with human liver hepatocytes stood at 86 % Liver Blood Flow. In addition, the figures for the Kd at BRD4 BD2 and at BRD4 BD1 were 10 to 100 nM and 100 to 1000 nM, respectively.
As to `Cn1cc(Oc2ccccc2)c(-c2cn(C)c(=O)c3[nH]ccc23)cc1=O` [Example 7, 6-methyl-4-(1-methyl-2-oxo-5-phenoxy-1,2-dihydropyridin-4-yl)-1,6-dihydro-7H-pyrrolo[2,3-c]pyridin-7-one], in the data set on human liver hepatocytes, the “Intrinsic clearance, % Liver Blood Flow” value was below 34 % Liver Blood Flow. Also, the Kd is at most 10 nM on BRD4 BD2 and 10 to 100 nM on BRD4 BD1. In addition, the EC50 was 10 to 100 nM in data set [1] (setting [2]) and below 100 nM in data set [1] (setting [3]).
Regarding `Cn1cc(Oc2cccc(O)c2)c(-c2cn(C)c(=O)c3[nH]ccc23)cc1=O` [Example 24, 4-(5-(3-hydroxyphenoxy)-1-methyl-2-oxo-1,2-dihydropyridin-4-yl)-6-methyl-1,6-dihydro-7H-pyrrolo[2,3-c]pyridin-7-one], the “Intrinsic clearance, % Liver Blood Flow” value in the data set with human liver hepatocytes worked out at 45 % Liver Blood Flow. Also, the EC50 in data set [1] (setting [2]) was 100 to 1000 nM. In addition, at BRD4 BD1, the Kd is 10 to 100 nM.
`Cc1cc(F)cc(C)c1Oc1c(-c2cn(C)c(=O)c3[nH]c(C(=O)NC4(C)CC4(F)F)cc23)ccn(C)c1=O` (centres unmarked) [Example 44, N-(2,2-difluoro-1-methylcyclopropyl)-4-(3-(4-fluoro-2,6-dimethylphenoxy)-1-methyl-2-oxo-1,2-dihydropyridin-4-yl)-6-methyl-7-oxo-6,7-dihydro-1H-pyrrolo[2,3-c]pyridine-2-carboxamide]: the “Intrinsic clearance, % Liver Blood Flow” value in the data set with human liver hepatocytes is listed as 34 % Liver Blood Flow. In addition, the results for the Kd at BRD4 BD2 and on BRD4 BD1 were 10 to 100 nM and above 1000 nM, respectively. The EC50 in data set [1] (setting [2]) fell in the range of 100 to 1000 nM.
On to `CCCOc1ncsc1-c1cn(C)c(=O)c2[nH]ccc12` [Example 46, 6-methyl-4-(4-propoxythiazol-5-yl)-1,6-dihydro-7H-pyrrolo[2,3-c]pyridin-7-one], for which the “Intrinsic clearance, % Liver Blood Flow” value with human liver hepatocytes came to 89 % Liver Blood Flow. The equilibrium dissociation constant (Kd) on BRD4 BD2 is 10 to 100 nM; at BRD4 BD1 it was 100 to 1000 nM. In addition, the EC50 in data set [1] (setting [2]) was 10 to 100 nM; in data set [1] (setting [3]), below 100 nM.
Consider `Cc1cc(F)cc(C)c1Oc1c(-c2ccc(=O)n(C)c2)ccn(C)c1=O` [Example 39, 3′-(4-fluoro-2,6-dimethylphenoxy)-1,1′-dimethyl-[3,4′-bipyridine]-2′,6(1H,1′H)-dione], for which the Kd at BRD4 BD2 was 100 to 1000 nM; at BRD4 BD1, above 1000 nM. For the same compound, the EC50 in data set [1] (setting [2]) was above 1000 nM.
On to `Cn1ccc(-c2cn(C)c(=O)c3[nH]ccc23)c(Oc2ccccc2)c1=O` [Example 5, 6-methyl-4-(1-methyl-2-oxo-3-phenoxy-1,2-dihydropyridin-4-yl)-1,6-dihydro-7H-pyrrolo[2,3-c]pyridin-7-one], for which the “Intrinsic clearance, % Liver Blood Flow” value in the data set with human liver hepatocytes is on record as below 34 % Liver Blood Flow. In addition, the Kd on BRD4 BD2 is at most 10 nM; on BRD4 BD1 it was 10 to 100 nM. Besides, the EC50 in data set [1] (setting [2]) is at most 10 nM; in data set [1] (setting [3]), below 100 nM.
With `Cn1cc(-c2scnc2Oc2ccccc2)c2cc[nH]c2c1=O` [Example 4, 6-methyl-4-(4-phenoxythiazol-5-yl)-1,6-dihydro-7H-pyrrolo[2,3-c]pyridin-7-one], the “Intrinsic clearance, % Liver Blood Flow” value with human liver hepatocytes was found to be 80 % Liver Blood Flow. The Kd on BRD4 BD2 was at most 10 nM; on BRD4 BD1, 10 to 100 nM. The EC50 in data set [1] (setting [2]) is 10 to 100 nM; in data set [1] (setting [3]), below 100 nM.
With `Cc1cc(F)cc(C)c1Oc1c(-c2cn(C)c(=O)c3[nH]ccc23)ccn(C)c1=O` [Example 47, 4-(3-(4-fluoro-2,6-dimethylphenoxy)-1-methyl-2-oxo-1,2-dihydropyridin-4-yl)-6-methyl-1,6-dihydro-7H-pyrrolo[2,3-c]pyridin-7-one], the Kd at BRD4 BD2 was at most 10 nM. Further, in data set [1] (48 hrs, ELISA, read-out: EC50 reduction of IL-4 levels), the EC50 is 100 to 1000 nM.
`COc1ccc(Oc2c(-c3cn(C)c(=O)c4[nH]ccc34)ccn(C)c2=O)cc1` [Example 34, 4-(3-(4-methoxyphenoxy)-1-methyl-2-oxo-1,2-dihydropyridin-4-yl)-6-methyl-1,6-dihydro-7H-pyrrolo[2,3-c]pyridin-7-one]: the “Intrinsic clearance, % Liver Blood Flow” value in the data set on human liver hepatocytes is reported as below 34 % Liver Blood Flow. For the same compound, on BRD4 BD1, the Kd was 10 to 100 nM.
Turning to `Cc1cc(F)cc(C)c1Oc1c(-c2cn(C)c(=O)c3[nH]c(C(=O)NC(C)(C)C)cc23)ccn(C)c1=O` [Example 42, N-(tert-butyl)-4-(3-(4-fluoro-2,6-dimethylphenoxy)-1-methyl-2-oxo-1,2-dihydropyridin-4-yl)-6-methyl-7-oxo-6,7-dihydro-1H-pyrrolo[2,3-c]pyridine-2-carboxamide], in the data set on human liver hepatocytes, the “Intrinsic clearance, % Liver Blood Flow” value was below 34 % Liver Blood Flow. Moreover, the figures for the Kd at BRD4 BD2 and on BRD4 BD1 were at most 10 nM and above 1000 nM, respectively. The EC50 in data set [1] (setting [2]) fell in the range of 100 to 1000 nM.
Regarding `Cn1cc(-c2cc(O)ccc2OC2CCC2)c2cc[nH]c2c1=O` [Example 10, 4-(2-cyclobutoxy-5-hydroxyphenyl)-6-methyl-1,6-dihydro-7H-pyrrolo[2,3-c]pyridin-7-one], the “Intrinsic clearance, % Liver Blood Flow” value in the data set on human liver hepatocytes was 93 % Liver Blood Flow. The EC50 was 10 to 100 nM in data set [1] (setting [2]) and below 100 nM in data set [1] (setting [3]). On BRD4 BD1, the dissociation constant Kd is at most 10 nM.

These data come from patent US12384777B2 (Tay Therapeutics Limited, priority 2019, dated 2025).
